Test results: patent US20140349332A1, “METHOD AND DEVICE FOR EXAMINING MYOCARDIAL TOXICITY AND EVALUATING CARDIOMYOCYTE” (priority 2011, published 2014)

Tested on: cardiomyocyte network
Test: Simultaneous measurement of extracellular potential (FP) and contractile force (optical imaging of probe microparticles) in cardiomyocyte network
Assay type: cell-based
Source text: FIG. 43 is a schematic diagram showing an example of a system configuration of the present invention to simultaneously measure the mechanical properties and electrical properties of cardiomyocytes. The present system includes (1) a cellular network chip that can be used for culturing a cell population, includes a plurality of micro-electrodes disposed on a substrate and can be used for acquiring cellular potential data of a small area of the population; (2) a chip mounter for mounting the chip and joining electrically with cell-stimulating and/or cellular potential measuring system; (3) an environmental control vessel which can be used to control the environment such as temperature, humidity, oxygen concentration and carbon dioxide concentration of the cell population being cultured; (4) a micro multi-electrode potential measurement system that can give stimulation to a specific cell of a cardiomyocyte population, and allows simultaneous continuous measurements of cellular potentials of various small areas in the cell population; (5) one or more position-coordinate probe microparticles configured to measure changes in shape of myocardial cells and allow easy identification of cardiomyocytes using a plastic, polymer, glass or metal microparticles such as polystyrene microparticles, glass microparticles or gold microparticles of sizes from at minimum about 0.1, 0.2 μm, 0.3 μm, 0.4 μm, 0.5 μm, 0.6 μm, 0.7 μm, or preferably about 0.8 μm, more preferably about 0.9 μm, or most preferably about 1 μm, to at most about 500 μm, 400 μm, 300 μm, preferably about 200 μm, more preferably about 100 μm or most preferably about 50 μm, wherein the particles are disposed in the cell population by mixing them on the surface of the cardiomyocyte population in the cell network chip or in the cell population and culturing them; (6) an optical image capturing system for optically measuring the microparticles, wherein the system includes a light source, an optical microscope and an image-capturing camera to capture the images of the microparticles; and (7) a computer system for image analysis, cellular potential analysis, stimulus control and/or integrated data acquisition, wherein the system is capable of measurements of cellular potential and analysis of waveforms of the potential, measurements of cell displacements by image analysis and feedback stimulation based on the analysis results. In the measurements using the device system, as for the stimulus to cause depolarization of the myocardial cells, the stimulus can be provided by selecting mainly from three means, i.e., (A) measurements using conduction of autonomous pulsation of the cardiomyocyte population, (B) measurements of conduction by providing a forced electrical stimulation from outside to a specific cell in the cardiomyocyte population and (C) measurements of conduction by providing a feed-back stimulus at a specific timing to meet the relationship of the delay time and the value of the cellular potential based on the cell voltage measured data to the specific cells in the cardiomyocyte population.
FIG. 44 is an example of a data acquisition monitor screen showing an example of data obtained from an example of a system configuration of the present invention to simultaneously measure the mechanical properties and the electrical properties of cardiomyocytes. In a setting of this example, a large number of polystyrene microparticles are placed on the surface of the cardiomyocyte population, a probe-particle displacement-observation window for five of the polystyrene microparticles selected as probes is set, and the center of gravity of the window moves with the movement of the microparticles in the window, thereby displacement of the particular probe microparticles can be measured continuously as a change in vector time in the directions of the X-axis and Y-axis. […]

[1] = drug concentration of 100 nM, FIG. 52B

SMILES: COc1ccc(CCN(C)CCCC(C#N)(c2ccc(OC)c(OC)c2)C(C)C)cc1OC (stereo not drawn) [verapamil]
- electrophysiological excitation (1000 nM, FIG. 52A): does not occur
- mechanical contraction (1000 nM, FIG. 52A): mechanical contraction does not occur
- angle fluctuation against decrease in contractile force (administration of 10 nM, FIG. 54B): barely increases
- fluctuation of contractile direction in the angular direction (administration of 100 nM, FIG. 54B): rapid fluctuation
- contractile force [1]: disappear rapidly
- electrical firing of excitatory conduction of cells [1]: maintained
